Reference: patent US20240240224A1, “FLUORESCENT D-TYPE AMINO ACID METABOLISM MARKER-BASED METHOD FOR DETECTING ANTIBACTERIAL DRUG SENSITIVITY TEST” (priority 2020, published 2024)

How the values were obtained:
[1] = test system: alveolar lavage fluid sample 0204, A. baumannii; assay: BMD susceptibility test of patient alveolar lavage fluid; assay type: cell-based, Acinetobacter baumannii; conditions: unit assumed
E.coli 1146 [2] = assay: Vitek 2 drug sensitivity test; assay type: cell-based, Escherichia coli; on Sensibility: key: S: Drug sensitive; R: Drug resistance
[3] = test system: Enterococcus faecium EFM26; assay: VITEK drug sensitivity test; assay type: cell-based; conditions: unit assumed
E. coli Ec13 = assay: BMD susceptibility test; assay type: cell-based, Escherichia coli; conditions: unit assumed
[4] = test system: bacteria contained in alveolar lavage fluid; assay: Vitek 2 drug sensitivity test of alveolar lavage fluid; assay type: cell-based; on Sensibility: key: S: Drug sensitive; R: Drug resistance
A. baumannii Ab16 [5] = assay: BMD susceptibility test; assay type: cell-based, Acinetobacter baumannii; conditions: unit assumed
E. faecalis ATCC29212 = assay: BMD susceptibility test; assay type: cell-based, Enterococcus faecalis; conditions: unit assumed
E.coli 1113 = assay: FDAA metabolic labeling susceptibility test (Cy5-DAA probe, flow cytometry); assay type: cell-based, Escherichia coli; conditions: Escherichia coli; E.coli 1113; Cy5-DAA probe, 2 hours; read-out: MIC, FDAA
E.coli 1146 [6] = assay: as above; assay type: cell-based, Escherichia coli; conditions: Escherichia coli; E.coli 1146; Cy5-DAA probe, 2 hours; read-out: MIC, FDAA
[7] = test system: bacteria contained in alveolar lavage fluid; assay: FDAA metabolic labeling susceptibility test of alveolar lavage fluid (Cy5-DAA probe); assay type: cell-based; conditions: alveolar lavage fluid of patients with hospital acquired pneumonia, 2 hours
Protocol: (§1) With reference to the flow chart of the rapid detection method of antimicrobial susceptibility test based on FDAA metabolic markers shown in FIG. 3, FDAA is used for the detection of antimicrobial susceptibility test of alveolar lavage fluid. The specific experimental steps are as follows: • 1. Mix bronchoalveolar lavage fluid (BALF, 10 ml) of patients with hospital acquired pneumonia with cation regulated broth medium (CAMHB, 10 ml) of twice the concentration to prepare the bacterial fluid to be tested. • 2. Add 45 μl antibiotic solutions of different concentrations to the 96-well plate separately (see Table 1 for antibiotic concentration gradient settings). • 3. Add 50 μl of the bacterial solution prepared in step 1 to the 96-well plate and mix well. • 4. Add 5 μl of 10 mM Cy5-DAA probe (final concentration 0.15 mM, see FIG. 1 for its structure) into each well, mix well, and then cultivate in dark for 2 hours. • 5. Add 200 μl PBS solution for dilution, and then use flow cytometry to detect the fluorescence intensity of each sample.

[8] = test system: alveolar lavage fluid sample 0219, A. baumannii; assay: FaAST (FDAA) susceptibility test of patient alveolar lavage fluid; assay type: cell-based, Acinetobacter baumannii; conditions: unit assumed
Protocol: as §1
(§2) The results of antimicrobial susceptibility test of alveolar lavage fluid of seven patients using FDAA and BMD methods are shown in the following table. The drug-resistant bacteria are shown in bold.

[9] = test system: alveolar lavage fluid sample 0130, A. baumannii; assay: as above; assay type: cell-based, Acinetobacter baumannii; conditions: unit assumed
Protocol: as §1, §2

[10] = test system: alveolar lavage fluid sample 0206, A. baumannii; assay: as above; assay type: cell-based, Acinetobacter baumannii; conditions: unit assumed
Protocol: as §1, §2

[11] = test system: alveolar lavage fluid sample 0204, A. baumannii; assay: as above; assay type: cell-based, Acinetobacter baumannii; conditions: unit assumed
Protocol: as §1, §2

S. aureus ATCC29213 = assay: BMD susceptibility test; assay type: cell-based, Staphylococcus aureus; conditions: unit assumed
A. baumannii Ab16 [12] = assay: FaAST (FDAA metabolic labeling); assay type: cell-based, Acinetobacter baumannii; conditions: unit assumed
How it was run: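 Bacteria at OD600=0.05 in CAMHB mixed with antibiotic dilutions plus Cy5-DAA probe at 0.15 mM final, then incubated 2 h in the dark. Cell-wall labeling fluorescence measured by flow cytometry after PBS dilution.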

K. pneumoniae Kp9 = assay: BMD susceptibility test; assay type: cell-based, Klebsiella pneumoniae; conditions: unit assumed
E. coli Ec11 = assay: BMD susceptibility test; assay type: cell-based, Escherichia coli; conditions: unit assumed

## C[C@H]1COc2c(N3CCN(C)CC3)c(F)cc3c(=O)c(C(=O)O)cn1c23 [Levofloxacin, levofloxacin]
[1]
  BMD (MIC): 0.5 µg/mL
E.coli 1146 [2]
  Sensibility: R
E.coli 1146 [2]; Escherichia coli
  MIC: ≥ 8 µg/mL
[3]
  MIC, VITEK: ≥ 256 µg/mL
E. coli Ec13
  BMD (MIC): 4 µg/mL
[4]
  MIC: ≥ 8 µg/mL
  Sensibility: R
A. baumannii Ab16 [5]
  BMD (MIC): 16 µg/mL
E. faecalis ATCC29212
  BMD (MIC): 1 µg/mL
E.coli 1113
  MIC: ≥ 16 µg/mL
E.coli 1146 [6]
  MIC: ≥ 16 µg/mL
[7]
  MIC, FDAA: ≥32 µg/mL
[8]
  FaAST (MIC): 64 µg/mL
[9]
  FaAST (MIC): 64 µg/mL
[10]
  FaAST (MIC): 64 µg/mL
[11]
  FaAST (MIC): 0.25 µg/mL
S. aureus ATCC29213
  BMD (MIC): ≤ 0.25 µg/mL
A. baumannii Ab16 [12]
  FaAST (MIC): 32 µg/mL
K. pneumoniae Kp9
  BMD (MIC): 32 µg/mL
E. coli Ec11
  BMD (MIC): ≤ 0.25 µg/mL
